# Source: US20220195432A9 (priority 2020, published 2022)
# What was measured:
# SARS-CoV2 = SARS-CoV2 infection of human ACE2 mice, paquinimod nasal drop group versus control; type: in vivo
# MHV [1] = type: in vivo; settings: IFNar knockout mice infected with MHV, paquinimod nasal drop group, FIG. 17
# IAV = system: IAV; parameters: species or system mice; settings: mouse, in vivo
# MHV [2] = type: in vivo, mice
# [3] = SARS-CoV2 pneumonia animal model
# [4] = MHV-infected lung tissues of IFNar knockout mice, FIG. 18
compound,measurement,setting,value
CCc1cccc2c1c(O)c(C(=O)N(CC)c1ccccc1)c(=O)n2C [paquinimod],replication of SARS-CoV-2,SARS-CoV2; FIG. 18,inhibiting replication
same,inflammation level,SARS-CoV2; [3],decreasing the inflammation level
same,virus titer in tissues,SARS-CoV2; [3],inhibits the virus titer in tissues
same,survival rate,MHV [1],increased survival rate
same,survival rate,IAV,no significant difference
same,inflammation and lung damage caused by inflammation,MHV [2]; [4],reducing inflammation and lung damage
same,lung S100A8 gene expression,MHV [2]; [4],not up-regulated
same,activation of neutrophils caused by coronavirus infection,MHV [2]; coronavirus-infected mice,inhibit the activation of neutrophils
same,replication of MHV,"MHV [2]; lung tissues of IFNar knockout mice, FIG. 18",inhibiting replication
